Assay in all cases: NCI-60 cell line screen, 48 h
The subject of assay [1] is DU-145 prostate.
For assay [2], the system named is LOX IMVI melanoma.
Assay [3] deals with OVCAR-8 ovarian.
Assay [4] relates to SF-295 CNS.
Assay [5] has as its system SF-539 CNS.
Assay [6] has as its system T-47D breast.
In assay [7] the test system is UACC-62 melanoma.
The test system of assay [8] is UO-31 renal.
Assay [9] deals with OVCAR-4 ovarian.
The subject of assay [10] is SK-MEL-2 melanoma.

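The compound was tested at five concentrations on cells cultured in 96-well plates, with a 48-hour exposure period. Abbreviation: GI50, concentration required for 50% inhibition of growth. TGI: concentration producing complete growth inhibition.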

Take `Nc1ccc(N=Nc2ccccc2)c(N)n1`: the GI50 in assay [1] was 25.2 µM; in assay [2], 29 µM; in assay [3] it was 37.5 µM; in assay [4], 17 µM; in [5] it was 29.9 µM; in assay [6], 23.4 µM. Moreover, the GI50 in assay [7] was 32.6 µM; in assay [8], 13.7 µM. Besides, the TGI was 81 µM in assay [1]; more than 100 µM in assay [2]; more than 100 µM in assay [3]; 50.9 µM in [4]; more than 100 µM in [5]; more than 100 µM in assay [6]. Moreover, the TGI in assay [7] is more than 100 µM; in [8], 43 µM.
Consider `CCN(CC)CCOc1ccc(Nc2ncc3cc(-c4c(Cl)cccc4Cl)c(=O)n(CCOC)c3n2)cc1`, for which the GI50 is 0.217 µM in assay [1]; 0.0318 µM in [2]; 0.946 µM in [9]; 0.2 µM in assay [3]; 0.375 µM in assay [4]; 0.0557 µM in assay [5]. For the same molecule, the GI50 in assay [10] is 0.493 µM; in assay [6] it was 0.133 µM; in assay [7], 0.206 µM; in assay [8] it was 0.012 µM. For the same molecule, the TGI in assay [1] is 2.8 µM; in assay [2], 0.153 µM; in [9] it was 6.99 µM; in assay [3], 3.95 µM; in [4] it was 6.07 µM; in assay [5], 0.821 µM. The TGI came out at 7.6 µM in assay [10], 16.5 µM in assay [6], 7.04 µM in [7] and 0.179 µM in [8].
As for `COc1cc(C(=O)/C=C/c2c(-c3ccc(F)cc3)nc3sc(C)cn23)cc(OC)c1OC`, the GI50 in [1] is 7.52 µM; in assay [2], 2.5 µM; in assay [9], 2.28 µM; in [3], 4.94 µM; in assay [4], 2.33 µM; in assay [5], 6.23 µM. In addition, the GI50 in assay [10] is 5.75 µM; in assay [6] it was 2.93 µM; in assay [7], 2.91 µM; in [8], 2.95 µM. Besides, the TGI in assay [1] is more than 100 µM; in assay [2], more than 100 µM; in assay [9] it was more than 100 µM; in assay [3], more than 100 µM; in [4], 26.7 µM; in assay [5], more than 100 µM. Also, the TGI in assay [10], in [6], in assay [7] and in [8] was more than 100 µM in each case.
As to `CC1=C(SCc2ccccc2)C(=O)c2ccccc2C1=O`, the TGI was determined as 34.9 µM in assay [1]; 38.2 µM in [2]; 27.2 µM in assay [9]; 38.8 µM in assay [3]; 32.5 µM in assay [4]; 30 µM in [5]. Further, the figures for the TGI in assay [10], in assay [6] and in assay [7] were 40.1 µM, more than 100 µM and 31.8 µM, respectively.
As to `O=CN1N=C(c2ccc(Nc3ccnc4cc(Cl)ccc34)cc2)CC1c1ccccc1` (stereo not given), the GI50 in assay [1] is 3.8 µM; in [2], 1.61 µM; in assay [9] it was 3.88 µM; in assay [3], 4.53 µM; in assay [4], 2.41 µM; in assay [5], 4.57 µM. The GI50 in [6] was 2.18 µM; in [7], 1.55 µM; in [8] it was 3.81 µM. For the same molecule, the TGI is 27.8 µM in [1]; 3.33 µM in assay [2]; more than 100 µM in assay [9]; more than 100 µM in assay [3]; 8.91 µM in assay [4]; 18.7 µM in assay [5]. The TGI is 7.42 µM in assay [6], 4.16 µM in assay [7] and more than 100 µM in assay [8].
Take `CCCCCCOc1ccc(/C=N/NC(N)=S)cc1`: the GI50 in [1] is 7.26 µM; in assay [2] it was 3.78 µM; in assay [9], 3.12 µM; in [3], 7.69 µM; in assay [5], 2.38 µM; in [10] it was 6.95 µM. The GI50 is 2.39 µM in assay [6], 2.58 µM in [7] and 0.822 µM in assay [8]. For the same molecule, the TGI was more than 100 µM in assay [1]; 21.1 µM in assay [2]; 35 µM in assay [9]; more than 100 µM in assay [3]; 6.06 µM in assay [5]; more than 49.9 µM in assay [10]. Further, the TGI in assay [6] was determined as 18.2 µM; in assay [7], 10.3 µM; in [8], 3.66 µM.
As to `O=C(Cn1c(=O)c(-c2ccccc2)nc2ccccc21)c1cccnc1`, the GI50 in assay [1] is more than 100 µM; in [2] it was more than 100 µM; in assay [9] it was 46.2 µM; in assay [3], more than 100 µM; in [4] it was more than 100 µM; in assay [10], more than 100 µM. In addition, the GI50 in assay [6], in assay [7] and in [8] was more than 100 µM each time. Besides, the TGI in [1], in [2], in assay [9], in [3], in [4] and in assay [10] was more than 100 µM in each case. Further, the TGI in assay [6], in assay [7] and in assay [8] was more than 100 µM in each case.
For the molecule `c1cc(C2CCCCC2)ccc1OCCCCCCN1CCNCC1`, the GI50 was 1.88 µM in assay [1]; 1.95 µM in assay [9]; 1.92 µM in assay [4]; 1.78 µM in assay [5]; 1.82 µM in assay [10]; 2.14 µM in assay [6]. The GI50 is 1.86 µM in [7] and 1.62 µM in [8]. The TGI in assay [1] was determined as 3.42 µM; in assay [9], 4.52 µM; in [4] it was 3.77 µM; in assay [5], 3.25 µM; in assay [10], 3.71 µM; in assay [6], 4.79 µM. Also, the figures for the TGI in [7] and in [8] were 3.81 µM and 3.38 µM, respectively.
